Results as given in patent US20260325661A1, “ANTIBODY-CONJUGATED IMMUNO-ACTIVATING SMALL MOLECULE COMPOUND, AND USE” (SHENZHEN CONJUGENIX PHARMACEUTICAL TECHNOLOGY CO., LTD, priority 2023, published 2026).
Where two headings read alike, the source gives them in different places.

Key:
MC38-hPD-L1 cells = experiment: Tumor inhibition assay in mice bearing MC38-hPD-L1 colon cancer; type: in vivo, mouse; conditions: PD-L1 antibody 3 mg/kg, intraperitoneal, Day 8 and Day 12 after inoculation
Description: MC38-hPD-L1 cells (a humanized MC38 colon cancer cell line expressing human PD-L1 protein, Shanghai Model Organisms Center, Inc.) in the logarithmic phase were collected by digestion and centrifugation, and washed with PBS twice before counting, and the cell concentration was adjusted to 2.3×10^5 cells/mL. The mice were 6-week-old SPF-grade humanized C57BL/6 mice. The right back of the mice was shaved completely with a shaver, and 100 μL of the cell suspension was aspirated with a syringe and injected subcutaneously into the back of the mice after removing bubbles. When the tumor diameter reached 4-5 mm, administration was started.
Assessment of therapeutic effect on tumor-bearing mice and antitumor effect of the compounds: tumor-bearing mice (BALB/c) were randomly divided into control group, Atezolizumab antibody group (PD-L1 antibody group), and PD-L1-KX conjugate group (Atezolizumab-conjugated compound KX) (5 mice per group). […] The tumor was measured with a vernier caliper and the survival of the mice was recorded every three days at the beginning of administration and after administration. The tumor volume was calculated by the following method: 0.5×a×b^2, wherein a is the long-axis diameter and b is the short-axis diameter. […]

[1] = test system: human peripheral blood mononuclear cells (PBMCs); experiment: ELISA assay of immunocyte activator: induction of IFN-γ in human PBMCs; type: cell-based; conditions: Homo sapiens, PBMC, 24 h, 37 °C, read-out: EC50 IFN-γ ratio (inducing human PBMCs to produce IFN-γ)
Procedure, shortened: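 PBMCs from heparinized blood of healthy donors, isolated by density-gradient centrifugation, seeded at 2×10^5 cells per well. Treated with ten concentrations from 0.0001 to 10 μM in RPMI medium containing 0.1 DMSO; IFN-γ measured by ELISA and EC50 derived.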

[2] = pH 5, 24 h, Note d: sample pretreated by hydrolysis, acetate buffer pH 5, 37 °C, 72 h

For “Atezolizumab: PD-L1 antibody purchased from MedChemExpress (Atezolizumab, CAS number: 1380723-44-3)”, the “tumor volume inhibition rate (Atezolizumab as control)” value (MC38-hPD-L1 cells) was 67%.
With `COCCOc1nc(N)c2[nH]c(=O)n(Cc3ccc(CNC(=O)CCC(=O)NC(CCCCc4cn(CCOCCOCCOc5c(OC)cc(/C=C/C(=O)N6CCC=CC6=O)cc5OC)nn4)C(=O)O)cc3)c2n1` (stereo not drawn) [SZU-191] the EC50 ([1]; no pretreatment marked) was 100 nM.
In the case of `COCCOc1nc(N)c2[nH]c(=O)n(Cc3ccc(CNC(=O)CCC(=O)NC(CCCCNC(=O)OCc4ccc(NC(=O)[C@H](CCCNC(N)=O)NC(=O)[C@@H](NC(=O)CCCCCN5C(=O)C=CC5=O)C(C)C)cc4)C(=O)NCCOCCOCCOCCNC(=O)OC4CC/C=C/CCC4)cc3)c2n1` (stereo partly drawn) [Compound K30], the EC50 ([1]; no pretreatment marked) is reported as 59 nM.
Molecule `C=C(COC(=O)n1c(=O)n(Cc2ccc(CNC(=O)CCc3cn(CCOCCOCCOCCOCCN=[N+]=[N-])nn3)cc2)c2nc(OCCOC)nc(N)c21)C(=O)OCC` [Compound K45] has an EC50 ([1]; pH 6, 24 h, Note b: sample pretreated with equimolar glutathione, PBS pH 6, 37 °C) of 10 nM.
`C=CCNC(=S)NCC(=O)n1c(=O)n(Cc2ccc(CNC(=O)CCc3cn(CCOCCOCCOCCNC(=O)CCN4C(=O)C=CC4=O)nn3)cc2)c2nc(OCCOC)nc(N)c21` [Compound K67] showed an EC50 [1, 2] of 260 nM.
With `CCCCOc1nc(N)c2c(n1)n(CCCc1cn(CCOCCOCCOCCNC(=O)CCN3C(=O)C=CC3=O)nn1)c(=O)n2COC(=O)OC(C)C` [Compound K41] the EC50 [1, 2] was 2 nM.
In the case of `C=C(CN(C[C@H](C)c1ccc(-c2c(O)cc(C)c3[nH]c(=O)c4sccc4c23)cc1)C(=O)OCc1ccc(NC(=O)[C@H](CCCNC(N)=O)NC(=O)[C@@H](NC(=O)CCOCCOCCOCCOCCN2C(=O)C=CC2=O)C(C)C)cc1)C(=O)N1CCC(n2cc(Cn3c(=O)n(C(=O)N4CCN(C)CC4)c4c(N)nc(OCCCC)nc43)nn2)CC1` [Compound K62], the EC50 ([1]; Note a: sample pretreated with human liver microsomal enzyme, 2 h) is reported as 10 nM.
`CCCCOc1nc(N)c2[nH]c(=O)n(Cc3cn(CCOCCOCCOCC(=O)N[C@H](CCCCc4cn(COCCOCCOCCOCCN5C(=O)C=CC5=O)nn4)C(=O)N[C@H](C(=O)N[C@@H](CCCNC(N)=O)C(=O)Nc4ccc(COC(=O)NC[C@H](C)c5ccc(-c6c(O)cc(C)c7[nH]c(=O)c8sccc8c67)cc5)cc4)C(C)C)nn3)c2n1` [Compound K8] showed an EC50 ([1]; no pretreatment marked) of 110 nM.
Work on `CCCCOc1nc(N)c2[nH]c(=O)n(Cc3ccc(NC(=S)Nc4sc5c(c4C(=O)N[C@@H](CCCCNC(=O)OCc4ccc(NC(=O)[C@H](CCCNC(N)=O)NC(=O)[C@@H](NC(=O)CCCCCN6C(=O)C=CC6=O)C(C)C)cc4)C(=O)NCCOCCOCCOCCOCCNC(=O)CCC(=O)N4Cc6ccccc6C#Cc6ccccc64)CCCC5)cc3)c2n1` [Compound K34] yielded an EC50 ([1]; no pretreatment marked) of 131 nM.
